Assay in all cases: greenhouse pre-emergence herbicidal test
Holding throughout (format): in vivo
What all share (conditions): 250 g/ha, scale 0 to 100

The subject of assay [1] is Alopercurus myosuroides. An excerpt: (§1) The culture containers used were plastic flowerpots containing loamy sand with approximately 3.0% of humus as the substrate. The seeds of the test plants were sown separately for each species.
(§2) For the pre-emergence treatment, the active ingredients, which had been suspended or emulsified in water, were applied directly after sowing by means of finely distributing nozzles. The containers were irrigated gently to promote germination and growth and subsequently covered with transparent plastic hoods until the plants had rooted. This cover caused uniform germination of the test plants, unless this had been impaired by the active ingredients.
(§3) Depending on the species, the plants were kept at 10-25° C. or 20-35° C., respectively.
(§4) The test period extended over 2 to 4 weeks. During this time, the plants were tended, and their response to the individual treatments was evaluated.
(§5) Evaluation was carried out using a scale from 0 to 100. 100 means no emergence of the plants, or complete destruction of at least the aerial moieties, and 0 means no damage, or normal course of growth. A moderate herbicidal activity is given at values of at least 60, a good herbicidal activity is given at values of at least 70, and a very good herbicidal activity is given at values of at least 85.

Assay [2] has as its system Amaranthus retroflexus.
Source text: as §1, §2, §3, §4, §5

The subject of assay [3] is Echinocloa crus-galli.
Source text: as §1, §2, §3, §4, §5

Assay [4] concerns Setaria faberi. An excerpt: (§6) The culture containers used were plastic flowerpots containing loamy sand with approximately 3.0% of humus as the substrate. The seeds of the test plants were sown separately for each species. For the pre-emergence treatment, the active ingredients, which had been suspended or emulsified in water, were applied directly after sowing by means of finely distributing nozzles. The containers were irrigated gently to promote germination and growth and subsequently covered with transparent plastic hoods until the plants had rooted. This cover caused uniform germination of the test plants, unless this had been impaired by the active ingredients. […] The test period extended over 2 to 4 weeks. During this time, the plants were tended, and their response to the individual treatments was evaluated. Evaluation was carried out using a scale from 0 to 100. 100 means no emergence of the plants, or complete destruction of at least the aerial moieties, and 0 means no damage, or normal course of growth.

The test system of assay [5] is Abutilon theophrasti.
Source text: as §6

For `CC(C)(F)c1nc(N)nc(Nc2c(F)cccc2OCc2ccsc2Cl)n1` [Example 107], the herbicidal activity in assay [1] worked out at 75%; in assay [2], 75%; in assay [3] it was 100%; in assay [4], 100%.
Regarding `Cc1ccc(COc2cccc(F)c2Nc2nc(N)nc(C(C)(C)F)n2)cc1` [Example 9], the herbicidal activity is listed as 80% in assay [1], 95% in assay [2], 100% in assay [3] and 100% in assay [4].
In assay [5], `CC(C)(F)c1nc(N)nc(Nc2c(F)cccc2OCc2ccccc2)n1` [Example 257] returned a herbicidal activity of 100%.
As for `CC(C)(F)c1nc(N)nc(Nc2c(F)cc(F)cc2OCc2ccccc2)n1` [Example 60], the herbicidal activity in assay [1] was determined as 98%; in assay [2], 100%; in assay [3], 100%; in assay [4], 100%.
For the molecule `CCCC(F)c1nc(N)nc(Nc2c(F)cccc2OCc2ccccc2)n1` (stereo not shown) [Example 77], the herbicidal activity was determined as 100% in assay [3], 80% in assay [5] and 100% in assay [4].
Turning to `CC(C)(F)c1nc(N)nc(Nc2c(F)ccc(F)c2OCc2ccccc2F)n1` [Example 172], the herbicidal activity in assay [3], in assay [5] and in assay [4] was 100% throughout.
`COc1cccc(COc2cccc(F)c2Nc2nc(N)nc(C(C)(C)F)n2)c1` [Example 10]: the herbicidal activity in assay [1], in assay [2], in assay [3] and in assay [4] was 100% in each case.
`Nc1nc(Nc2c(F)cccc2OCc2ccccc2)nc(C2(F)CC2)n1` [Example 184]: the herbicidal activity is 85% in assay [1], 95% in assay [2] and 98% in assay [3].
On to `COC(C)(C)c1nc(N)nc(Nc2c(F)c(F)cc(F)c2OCc2cccc(F)c2)n1` [Example 249], for which the herbicidal activity in assay [3], in assay [5] and in assay [4] was 100% each time.
In the case of `CC(C)(C)c1nc(N)nc(Nc2c(F)c(F)cc(F)c2OCc2ccccc2)n1` [Example 200], the herbicidal activity in assay [3], in assay [5] and in assay [4] was 100% throughout.
Regarding `CC(F)(F)c1nc(N)nc(Nc2c(F)cccc2OCc2ccccc2)n1` [Example 96], the herbicidal activity in assay [1] amounted to 80%; in assay [2], 100%; in assay [3], 100%; in assay [4], 95%.
For the molecule `Cc1ccc(COc2c(F)cc(F)c(F)c2Nc2nc(N)nc(C(C)(C)F)n2)cc1` [Example 183], the herbicidal activity in assay [3], in assay [5] and in assay [4] was 100% each time.
On to `CC(C)(F)c1nc(N)nc(Nc2c(F)cccc2OCc2cnc(Cl)s2)n1` [Example 39], for which the herbicidal activity in assay [1] was found to be 90%; in assay [2], 80%; in assay [3], 100%; in assay [4] it was 90%.
As to `CC(C)c1ccc(COc2cccc(F)c2Nc2nc(N)nc(C(C)(C)F)n2)cc1` [Example 143], the herbicidal activity in assay [1] worked out at 90%; in assay [2], 100%.
As for `Nc1nc(Nc2c(F)cccc2OCc2ccccc2F)nc(C2(F)CCCC2)n1` [Example 19], the herbicidal activity amounted to 70% in assay [1], 80% in assay [2] and 85% in assay [4].
`COc1cccc(COc2cc(F)c(F)c(F)c2Nc2nc(N)nc(C(C)(C)F)n2)c1` [Example 98]: the herbicidal activity in assay [1] is given as 80%; in assay [2], 90%; in assay [3] it was 100%; in assay [4], 100%.
Take `COCc1ccccc1COc1c(F)cc(F)c(F)c1Nc1nc(N)nc(C(C)(C)F)n1` [Example 224]: the values for the herbicidal activity in assay [3], in assay [5] and in assay [4] were 90%, 100% and 100%, respectively.
Turning to `CC(C)(F)c1nc(N)nc(Nc2c(F)cccc2OCc2ccccc2F)n1` [Example 27], the herbicidal activity in assay [3], in assay [5] and in assay [4] was 100% each time.
For `COCc1cccc(COc2c(F)cc(F)c(F)c2Nc2nc(N)nc(C(C)(C)F)n2)c1` [Example 219], the herbicidal activity in assay [3] was 85%; in assay [5], 100%; in assay [4] it was 100%.
As to `Nc1nc(Nc2c(F)cccc2OCc2ccccc2)nc(C2(F)CCCC2)n1` [Example 5], the herbicidal activity in assay [1] is 85%; in assay [2] it was 98%; in assay [3] it was 100%; in assay [4], 98%.
For `COc1ccccc1COc1ccc(F)c(F)c1Nc1nc(N)nc(C(C)(C)F)n1` [Example 198], the herbicidal activity in assay [3] was 100%; in assay [5], 98%; in assay [4] it was 100%.
For `CCc1ccc(COc2cccc(F)c2Nc2nc(N)nc(C(C)(C)F)n2)cc1` [Example 94], the herbicidal activity worked out at 100% in assay [1] and 70% in assay [2].
`Cc1cccc(COc2cccc(F)c2Nc2nc(N)nc(C(C)(C)F)n2)c1` [Example 26]: the herbicidal activity in assay [3] is given as 80%; in assay [5] it was 85%; in assay [4], 70%.
Regarding `CC(C)(F)c1nc(N)nc(Nc2c(F)cccc2OCc2ccccc2)n1` [Example 4], the herbicidal activity in assay [1], in assay [2], in assay [3] and in assay [4] was 100% throughout.
Regarding `COC(C)(C)c1nc(N)nc(Nc2c(F)c(F)cc(F)c2OCc2ccccc2Cl)n1` [Example 251], the herbicidal activity is listed as 95% in assay [3], 98% in assay [5] and 100% in assay [4].
For `Cc1ccc(COc2c(F)ccc(F)c2Nc2nc(N)nc(C(C)(C)F)n2)cc1` [Example 141], the herbicidal activity in assay [3] was 100%; in assay [5], 98%; in assay [4], 100%.
`COC(C)(C)c1nc(N)nc(Nc2c(F)cccc2OCc2ccccc2)n1` [Example 91]: the herbicidal activity in assay [1], in assay [2], in assay [3] and in assay [4] was 100% in each case.
Take `CC(C)(F)c1nc(N)nc(Nc2c(OCc3ccccc3)ccc(F)c2F)n1` [Example 108]: the herbicidal activity in assay [1], in assay [2], in assay [3] and in assay [4] was 100% in each case.
Take `Nc1nc(Nc2c(F)cccc2OCc2ccccc2)nc(C(F)C2CCCC2)n1` (stereo not shown) [Example 202]: the herbicidal activity came to 80% in assay [3], 80% in assay [5] and 85% in assay [4].
As for `CC(C)(F)c1nc(N)nc(Nc2c(OCc3ccccc3)cc(F)c(F)c2F)n1` [Example 69], the herbicidal activity in assay [1], in assay [2], in assay [3] and in assay [4] was 100% each time.
Regarding `CC(C)(F)c1nc(N)nc(Nc2c(F)cccc2OCc2cccc(Br)c2)n1` [Example 44], the herbicidal activity in assay [5] and in assay [4] was 70% each time.
On to `COc1ccc(COc2cccc(F)c2Nc2nc(N)nc(C(C)(C)F)n2)cc1` [Example 20], for which the herbicidal activity is 100% in assay [1], 98% in assay [2], 100% in assay [3] and 95% in assay [4].
As to `Nc1nc(Nc2c(F)cccc2OCc2cccc(F)c2)nc(C2(F)CCCC2)n1` [Example 18], the herbicidal activity in assay [1] came out at 70%; in assay [2], 70%; in assay [3], 70%; in assay [4], 85%.
With `CC(C)(F)c1nc(N)nc(Nc2c(F)cccc2OCc2cccc(F)c2)n1` [Example 11], the herbicidal activity in assay [1], in assay [2], in assay [3] and in assay [4] was 100% in each case.
Turning to `CC(C)(F)c1nc(N)nc(Nc2c(F)c(Br)cc(F)c2OCc2ccccc2)n1` [Example 163], the herbicidal activity in assay [1], in assay [3] and in assay [4] was 100% in each case.

Source of the values: patent US11992012B2, “Diaminotriazine compounds” (BASF SE, priority 2018, dated 2024).
